Measurements taken from patent US20240299416A1, “TREATMENT OF NF-kB-MEDIATED DISEASE” (ReveraGen BioPharma, Inc., priority 2021, published 2024).
Where two headings read alike, the source gives them in different places.

Columns and labels:
[1] = Growth (height percentile) and BMI vs external comparators; format: in vivo, human; conditions: CINRG prednisone trial, 0.75 mg/kg/day daily; for Mean BMI z-score, change from baseline (SD) / Mean BMI z-score, baseline value (SD): 0.75 mg/kg/day
Experimental: As with the CINRG DNHS comparators, group-matching criteria were prespecified in the iSAP, and 2 independent statisticians carried out the participant matching. […] There was no corresponding 12-month assessment in vamorolone-treated participants. (Assessments of vamorolone-treated trial participants were 0, 3, 6, and 18 months).
Standing height and weight were assessed at each study visit. Height z-score, body mass index (BMI; kg/m^2), and BMI z-score were calculated centrally. AE reporting was done per protocol in the vamorolone trials.
The current study is the first to evaluate the longer-term tolerability, efficacy, and safety of vamorolone in DMD. […] Given the variable timing of dose escalations, it was prespecified that initial analyses of drug-related efficacy and safety would be limited to those participants who had 18 months of treatment with 2.0 mg/kg/day vamorolone or more (dose group C+dose group D; n=23). Outcomes for these participants were compared to a group-matched cohort from the CINRG DNHS over 18 months (corticosteroid-naïve, n=19; corticosteroid-treated, n=68). Participants were matched for age and treatment period (±1 month), matching criteria were prespecified in the statistical analysis plan. Two independent statisticians carried out the matching.
Participants in the corticosteroid-treated CINRG DNHS group were treated for at least 18 months, but the total duration, dose, and regimens varied.

[2] = VBP15-004 adverse events at 24 weeks; design: species or system human; conditions: male, human, in vivo, 24 weeks
Description: In certain embodiments, the symptom may be an adverse event of special interest (AESI). In this context, AESIs are prespecified based on pre-defined MedDRA search criteria for eleven AESI categories for the corticosteroid class and then further stratified into AESI of at least moderate severity. The symptoms for treating DMD with corticosteroids include, but is not limited to, behavior adverse events, blood glucose related problems, gastrointestinal symptoms, increased arterial blood pressure, immune suppression/infections, skin/hair changes, cataracts/glaucoma, cushingoid features, weight gain, bone fractures, slow growth.
(§1) The second period of 24 weeks, where all participants receive vamorolone treatment on either of the two dose levels, will continue to capture additional longer-term safety and tolerability data.

osteocalcin, P1NP, CTX = assay: VBP15-004 bone turnover biomarkers; format: in vivo, human
[3] = VBP15-004 height and BMI z-scores, 24 to 48 weeks; format: in vivo, human; conditions: for BMI mean z-score: prednisone
Experimental: as §1
(§2) Subjects already on vamorolone continued on the allocated dose level. Efficacy at Week 48 was assessed by Time to Stand (TTSTAND) velocity, 6-Minute Walk Test (6MWT), Time to Run/Walk 10 meters (TTRW) velocity, and North Star Ambulatory Assessment (NSAA). […] In contrast, the persistence of effects with vamorolone 2 mg/kg/day was less pronounced for some parameters. The safety profile was consistent for subjects who continued on the same dose of vamorolone throughout the study, with no increase in frequency or severity of adverse events being observed over time. […] In addition, vamorolone treatment at both doses reversed the growth impairment seen during prednisone treatment and was associated with fewer adverse events, including those associated with corticosteroid use.

boys with DMD = assay: VBP15-004 efficacy at Week 48; format: in vivo, human; conditions: prednisone, Treatment Period 1
Experimental: as §2, with “([…])” for “(TTSTAND)”

[4] = VBP15-004 adverse events, Treatment Period 2 / cross-over; format: in vivo, human; conditions: on prednisone (to Week 24), subjects later switched to vamorolone 6 mg/kg/day
Experimental: as §2, with “([…])” for “(TTSTAND)”

[5] = target: T1, mineralocorticoid receptor (Homo sapiens, UniProt P08235); conditions: cited from earlier work
T1 sequence (P08235 1-984): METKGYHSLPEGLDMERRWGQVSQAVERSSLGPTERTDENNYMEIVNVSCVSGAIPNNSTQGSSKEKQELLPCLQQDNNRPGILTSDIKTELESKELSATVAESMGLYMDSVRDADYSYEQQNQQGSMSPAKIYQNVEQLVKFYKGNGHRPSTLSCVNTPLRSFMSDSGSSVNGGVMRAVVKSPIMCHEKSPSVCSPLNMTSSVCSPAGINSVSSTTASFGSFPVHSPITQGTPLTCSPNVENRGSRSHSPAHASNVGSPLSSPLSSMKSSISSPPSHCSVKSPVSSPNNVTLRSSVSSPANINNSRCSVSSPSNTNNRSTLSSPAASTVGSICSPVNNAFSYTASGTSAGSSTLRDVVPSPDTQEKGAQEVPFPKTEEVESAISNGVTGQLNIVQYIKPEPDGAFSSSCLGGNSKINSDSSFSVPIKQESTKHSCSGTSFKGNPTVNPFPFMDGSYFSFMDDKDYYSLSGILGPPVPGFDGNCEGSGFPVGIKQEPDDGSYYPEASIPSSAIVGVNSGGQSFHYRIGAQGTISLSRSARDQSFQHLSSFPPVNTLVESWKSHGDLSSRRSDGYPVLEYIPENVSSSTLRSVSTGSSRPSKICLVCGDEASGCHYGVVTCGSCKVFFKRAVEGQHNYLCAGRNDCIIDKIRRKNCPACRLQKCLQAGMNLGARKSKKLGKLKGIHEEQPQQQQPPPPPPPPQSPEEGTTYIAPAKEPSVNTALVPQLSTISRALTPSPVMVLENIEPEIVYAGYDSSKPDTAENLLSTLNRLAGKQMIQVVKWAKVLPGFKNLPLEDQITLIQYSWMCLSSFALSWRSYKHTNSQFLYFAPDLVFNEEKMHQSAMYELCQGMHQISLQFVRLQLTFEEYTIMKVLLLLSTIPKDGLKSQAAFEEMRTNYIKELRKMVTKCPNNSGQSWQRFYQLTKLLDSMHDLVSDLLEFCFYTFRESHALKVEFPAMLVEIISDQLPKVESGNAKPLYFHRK

[6] = Griggs et al. 2016 double-blind trial, 12 months treatment, cited from earlier work
[7] = cited from earlier work
[8] = Griggs et al. 2016, 0.9 mg/kg/day deflazacort, 0.75 mg/kg/day prednisone

C[C@]12C=CC(=O)C=C1CC[C@@H]1[C@@H]2C(=O)C[C@@]2(C)[C@H]1CC[C@]2(O)C(=O)CO [Prednisone, prednisone]
Mean BMI z-score, value (SD) at 12 months ([1]; 12 months): 1.068 (1.05) | Mean height percentile for age, change from baseline (SD) ([1]; 12 months): −3.76 (10.44) | Mean height percentile for age, value (SD) at 12 months ([1]; 12 months): 26.14 (24.21) | Mean BMI z-score, change from baseline (SD) ([1]; 12 months): 0.459 (0.407) | Mean BMI z-score, change from baseline (SD) ([1]; 12 months, listed as prednisone): 0.46 | Mean height percentile for age, baseline value (SD) ([1]; baseline): 29.89 (29.15) | Mean BMI z-score, baseline value (SD) ([1]; baseline): 0.61 (1.27) | Mean BMI z-score, baseline value (SD) ([1]; baseline, listed as prednisone): 0.61 | AESIs of at least moderate severity, F [2]: 15 | Abnormal behavior, any severity, F [2]: 2 | Abnormal behavior, moderate/severe, F [2]: 1 | Aggression, any severity, F [2]: 3 | Aggression, moderate/severe, F [2]: 2 | All AESIs, F [2]: 69 | All TEAEs, F [2]: 120 | Anger, any severity, F [2]: 1 | Any Behavior AESI, any severity, F [2]: 16 | Any Behavior AESI, moderate/severe, F [2]: 8 | Clinically relevant AEs, F [2]: 19 | Emotional disorder, any severity, F [2]: 1 | Emotional disorder, moderate/severe, F [2]: 1 | Initial insomnia, any severity, F [2]: 1 | Irritability, any severity, F [2]: 1 | Mood swings, any severity, F [2]: 2 | Mood swings, moderate/severe, F [2]: 1 | Personality change, any severity, F [2]: 1 | Personality change, moderate/severe, F [2]: 1 | Psychomotor hyperactivity, any severity, F [2]: 3 | Psychomotor hyperactivity, moderate/severe, F [2]: 1 | Severe TEAEs (CTCAE Grade ≥3), F [2]: 1 | Sleep disorder, any severity, F [2]: 1 | Sleep disorder, moderate/severe, F [2]: 1 | TEAEs leading to discontinuation, F [2]: 1 | clinically relevant psychiatric events, subjects [2]: 19.4% | moderate/severe behavior problems, subjects [2]: 22.6% | Osteocalcin, mean (SEM) change at Week 24 (osteocalcin, P1NP, CTX): −15.2 (2.7) ng/ml | Procollagen 1 N-Terminal Propeptide (P1NP), mean (SEM) change at Week 24 (osteocalcin, P1NP, CTX; Prednisone 0.75 mg): −134 (22) ng/mL | Type I Collagen C-Telopeptides (CTX), mean (SEM) change at Week 24 (osteocalcin, P1NP, CTX; Prednisone 0.75 mg): −300 (43) pg/mL | effect on bone biomarkers (osteocalcin, PINP, CTX) (osteocalcin, P1NP, CTX; Week 24, vamorolone 2.0 and 6.0 mg/kg): strongly reduce all bone biomarkers | height (z-score), absolute value, Mean ([3]; PDN/VAM 6 mg, Week 24): −0.38 | change in height Z scores ([3]; prednisone 0.75 mg/kg/day, baseline to Week 24): growth deceleration | BMI mean z-score ([3]; end of Treatment Period 1): 1.40 | BMI mean z-score ([3]; start of Treatment Period 1): 0.94 | 6MWT distance (boys with DMD): 407 meters | NSAA (boys with DMD): 25.6 points | TTRW velocity (boys with DMD): 2.20 m/s | TTSTAND velocity (boys with DMD): 0.28 rises/s | number of adverse events [4]: 70 | number of adverse events reported as behavioral disorders [4]: 15 | number of adverse events typically associated with corticosteroids [4]: 40 | activity at the mineralocorticoid receptor [5]: agonists

CC(=O)OCC(=O)[C@@]12N=C(C)O[C@@H]1C[C@H]1[C@@H]3CCC4=CC(=O)C=C[C@]4(C)[C@H]3[C@@H](O)C[C@@]12C [Deflazacort, deflazacort]
activity at the mineralocorticoid receptor [5]: agonists | change in height percentiles for age [6]: −11.4 | change in height percentiles for age ([6]; listed as deflazacort): −11.43 | Incidence of Cushingoid ([7]; CINRG DNHS): 72% | Incidence of behavior change ([7]; CINRG DNHS): 33% | Incidence of weight gain ([7]; CINRG DNHS): 63% | Incidence of Cushingoid [7, 8]: 60.3% | Incidence of behavior change [7, 8]: 9% | Incidence of hypertrichosis/hirsutism [7, 8]: 35% | Incidence of weight gain [7, 8]: 27.9%
